Reference: ChEMBL document CHEMBL3091311, “Removal of human ether-à-go-go related gene (hERG) K+ channel affinity through rigidity: a case of clofilium analogues” (J Med Chem, 2013)

biological target: T1, hERG (KCNH2) (Homo sapiens, UniProt Q12809); assay: Ratio of Ki for human ERG channel expressed in HEK293 cell membrane after 1 hr by scintillation counting analysis to IC50 for human ERG channel expressed in HEK293 cells after 15 mins by whole-cell patch clamp technique; type: cell membranes; conditions: not given
T1 sequence (Q12809 whole entry): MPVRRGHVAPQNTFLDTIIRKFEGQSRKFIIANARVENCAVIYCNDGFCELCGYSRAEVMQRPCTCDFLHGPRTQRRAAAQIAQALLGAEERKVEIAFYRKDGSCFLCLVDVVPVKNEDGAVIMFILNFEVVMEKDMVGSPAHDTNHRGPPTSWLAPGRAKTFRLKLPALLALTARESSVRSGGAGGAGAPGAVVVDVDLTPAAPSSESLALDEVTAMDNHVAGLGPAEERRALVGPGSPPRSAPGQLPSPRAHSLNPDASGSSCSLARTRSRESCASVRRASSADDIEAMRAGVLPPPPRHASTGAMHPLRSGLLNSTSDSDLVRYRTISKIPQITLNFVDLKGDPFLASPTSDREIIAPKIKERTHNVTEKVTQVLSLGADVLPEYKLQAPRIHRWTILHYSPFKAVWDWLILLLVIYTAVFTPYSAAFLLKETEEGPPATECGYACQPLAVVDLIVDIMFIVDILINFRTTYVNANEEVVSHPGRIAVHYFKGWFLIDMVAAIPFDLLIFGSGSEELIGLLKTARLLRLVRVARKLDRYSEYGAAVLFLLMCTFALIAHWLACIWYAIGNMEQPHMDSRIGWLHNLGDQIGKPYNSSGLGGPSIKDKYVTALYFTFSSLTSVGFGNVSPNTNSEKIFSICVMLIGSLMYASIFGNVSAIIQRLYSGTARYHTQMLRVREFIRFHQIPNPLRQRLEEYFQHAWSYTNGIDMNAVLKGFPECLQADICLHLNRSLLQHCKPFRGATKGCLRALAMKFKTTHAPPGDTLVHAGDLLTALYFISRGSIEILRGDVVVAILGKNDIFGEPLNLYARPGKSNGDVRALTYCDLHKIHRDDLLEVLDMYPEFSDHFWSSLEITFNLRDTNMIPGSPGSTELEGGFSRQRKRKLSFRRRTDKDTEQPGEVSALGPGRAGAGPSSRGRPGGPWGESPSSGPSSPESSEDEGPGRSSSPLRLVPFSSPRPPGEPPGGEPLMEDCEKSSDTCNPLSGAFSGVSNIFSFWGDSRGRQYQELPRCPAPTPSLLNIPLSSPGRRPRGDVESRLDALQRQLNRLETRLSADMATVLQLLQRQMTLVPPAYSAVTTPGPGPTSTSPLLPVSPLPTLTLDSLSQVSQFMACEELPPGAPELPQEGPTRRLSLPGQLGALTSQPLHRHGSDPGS

SMILES | selectivity ratio
CCCCCCCN(CC)CC#CCCc1ccc(Cl)cc1 | 2

biological target: T2, Voltage-gated inwardly rectifying potassium channel KCNH2 (Homo sapiens, UniProt Q12809); assay: Displacement of [3H]astemizole from human ERG channel expressed in HEK293 cell membrane after 1 hr by scintillation counting analysis; conditions: not given
T2 sequence (Q12809 whole entry): as above

SMILES | IC50 | Ki
CCCCCCCN(CC)CC#Cc1ccc(Cl)cc1 | 4080 nM | –
CCCCCCCN(CC)CC#CCCc1ccc(Cl)cc1 | 765 nM | 148 nM
CCCCN(CC)CC#CCOCc1ccc(Cl)cc1 | 7370 nM | –
CCCCN(CC)C/C=C/c1ccc(Cl)cc1 | 1050 nM | –
CCCCCCCN(CC)CC#CCCc1ccccc1 | 4390 nM | –
CCCCCCC[N+](CC)(CC)CC#Cc1ccc(Cl)cc1 | 40 nM | –
CCCCN(CC)CC#CCCc1ccc(C)cc1 | 5590 nM | –
CCCCCCCN(CC)CC#CCOC(c1ccccc1)c1ccccc1 | 970 nM | –
CCCCCCCN(CC)C/C=C/CCc1ccc(Cl)cc1 | 238 nM | –
CCCCCCCN(CC)C/C=C/c1ccc(Cl)cc1 | 243 nM | –
CCCCCCCN1CCC(C(=O)c2ccccc2)CC1 | 124 nM | –

biological target: T1, hERG (KCNH2); assay: Displacement of [3H]astemizole from human ERG channel expressed in HEK293 cell membrane at 10 uM after 1 hr by scintillation counting analysis; conditions: membranes of HEK293 cells that express hERG, probe [3H]astemizole

SMILES | inhibition at 1 h, 10 µM
CCCCN(CC)CC#CCCc1ccccc1 | 48%
CCCCN(CC)CC#CC#Cc1ccc(C)cc1 | 47%

biological target: T2, Voltage-gated inwardly rectifying potassium channel KCNH2; assay: Inhibition of human ERG channel expressed in HEK293 cells after 15 mins by whole-cell patch clamp technique; type: cell-based; conditions: not given

SMILES | IC50
CCCCCCCN(CC)CC#CCCc1ccc(Cl)cc1 | 53 nM
